What was measured:
Format in all cases: in vivo
[1] = test system: surinam grass (Brachiaria decumbens); assay: Test C; conditions: PREEMERGENCE
[2] = test system: fall panicum (Panicum dichotomiflorum); assay: Test C; parameters: key: 0 was no effect; 100 was complete control; conditions: PREEMERGENCE
corn (Zea mays) = assay: Test C; parameters: key: 0 was no effect; 100 was complete control; conditions: PREEMERGENCE
[3] = test system: johnsongrass (Sorghum halepense); assay: Test C; parameters: key: 0 was no effect; 100 was complete control; conditions: PREEMERGENCE
[4] = test system: redroot pigweed (Amaranthus retroflexus); assay: Test C; parameters: key: 0 was no effect; 100 was complete control; conditions: PREEMERGENCE
[5] = test system: dallisgrass (Paspalum dilatatum); assay: Test E pre-/postemergence/post directed; parameters: key: 0 is no effect; 100 is complete control
Description: (§1) Seeds, tubers, or plant parts of alexandergrass (Brachiaria plantaginea), annual bluegrass (Poa annua), arrowleaf sida (Sida rhombifolia), barnyardgrass (Echinochloa crus-galli), bermudagrass (Cynodon dactylon), citrus (Citrus sinensis), common chickweed (Stellaria media), common purslane (Portulaca oleracea), common ragweed (Ambrosia elatior), common groundsel (Senecio vulgaris), dallisgrass (Paspalum dilatatum), goosegrass (Eleusine indica), green foxtail (Setaria viridis), guineagrass (Panicum maximum), itchgrass (Rottboellia exaltata), johnson grass (Sorghum halepense), kochia (Kochia scoparia), large crabgrass (Digitaria sanguinalis), leafy spurge (Euphorbia esula), pitted morningglory (Ipomoea lacunosa), purple nutsedge (Cyperus rotundus), quackgrass (Agropyron repens), Russian thistle (Salsola kali), sandbur (Cenchrus echinatus), sourgrass (Trichachne insularis), Spanishneedles (Bidens bipinnata), sugarcane (Saccharum officinarum), surinam grass (Brachiaria decumbens) and tall mallow (Malva sylvestris) were planted into greenhouse pots of flats containing greenhouse planting medium. Plant species were grown grown in separate pots or individual compartments. Preemergence applications were made within one day of planting the seed or plant part. Postemergence applications were applied when the plants were in the two to four leaf stage (three to twenty cm).
(§2) Test chemicals were formulated in a non-phytotoxic solvent mixture which included a surfactant and applied preemergence to the soil surface, postemergence to the plants or as a post directed spray to plants and soil at the base of the target species. Untreated control plants and treated plants were placed in the greenhouse and visually evaluated for injury 13 to 21 days after herbicide application. Plant response ratings, summarized in Table E, are based on a 0 to 100 scale where 0 is no injury and 100 is complete control. A dash (−) response means no test result.

[6] = test system: goosegrass (Eleusine indica); assay: Test E pre-/postemergence/post directed; parameters: key: 0 is no effect; 100 is complete control
Description: as §1, §2

[7] = test system: common purslane (Portulaca oleracea); assay: Test E pre-/postemergence/post directed; parameters: key: 0 is no effect; 100 is complete control
Description: as §1, §2

[8] = test system: large crabgrass (Digitaria sanguinalis); assay: Test E pre-/postemergence/post directed; parameters: key: 0 is no effect; 100 is complete control; conditions: PREEMERGENCE
Description: as §1, §2

[9] = test system: common groundsel (Senecio vulgaris); assay: Test E pre-/postemergence/post directed; parameters: key: 0 is no effect; 100 is complete control; conditions: PREEMERGENCE
Description: as §1, §2

[10] = test system: sourgrass (Trichachne insularis); assay: Test E pre-/postemergence/post directed; parameters: key: 0 is no effect; 100 is complete control
Description: as §1, §2

[11] = test system: common ragweed (Ambrosia elatior); assay: Test E pre-/postemergence/post directed; parameters: key: 0 is no effect; 100 is complete control; conditions: PREEMERGENCE
Description: as §1, §2

[12] = test system: guineagrass (Panicum maximum); assay: Test E pre-/postemergence/post directed; parameters: key: 0 is no effect; 100 is complete control
Description: as §1, §2

[13] = test system: tall mallow (Malva sylvestris); assay: Test E pre-/postemergence/post directed; parameters: key: 0 is no effect; 100 is complete control; conditions: PREEMERGENCE
Description: as §1, §2

[14] = test system: surinam grass (Brachiaria decumbens); assay: Test E pre-/postemergence/post directed; parameters: key: 0 is no effect; 100 is complete control; conditions: PREEMERGENCE
Description: as §1, §2

[15] = test system: barnyardgrass (Echinochloa crus-galli); assay: Test C; conditions: PREEMERGENCE
soybean (Glycine max) = assay: Test C; parameters: key: 0 was no effect; 100 was complete control; conditions: PREEMERGENCE

For `Cc1cnc(-c2ccc(C(F)(F)F)cc2)nc1Cc1cccc(OC(F)(F)F)c1` [Compound 15], the “Plant response rating, Surinam grass” value ([1]; Rate 35 g/ha) was 20, the “Plant response rating, Surinam grass” value ([1]; Rate 70 g/ha) was 50 and the “Plant response rating, Surinam grass” value ([1]; Rate 140 g/ha) was 80. For the same compound, the “Plant response rating, Fall panicum” value ([2]; Rate 35 g/ha) was 40, the “Plant response rating, Fall panicum” value ([2]; Rate 70 g/ha) was 80 and the “Plant response rating, Fall panicum” value ([2]; Rate 140 g/ha) was 100. For the same compound, the “Plant response rating, Corn” value (corn (Zea mays); Rate 35 g/ha) was 0, the “Plant response rating, Corn” value (corn (Zea mays); Rate 70 g/ha) was 5 and the “Plant response rating, Corn” value (corn (Zea mays); Rate 140 g/ha) was 10. The “Plant response rating, Johnsongrass” value ([3]; Rate 35 g/ha) was 35, the “Plant response rating, Johnsongrass” value ([3]; Rate 70 g/ha) was 85 and the “Plant response rating, Johnsongrass” value ([3]; Rate 140 g/ha) was 100. The “Plant response rating, Redroot pigweed” value ([4]; Rate 35 g/ha) was 60, the “Plant response rating, Redroot pigweed” value ([4]; Rate 70 g/ha) was 85 and the “Plant response rating, Redroot pigweed” value ([4]; Rate 140 g/ha) was 100. The “Plant response rating, Dallisgrass” value ([5]; POSTEMERGENCE, Rate 125 g/ha) was 5, the “Plant response rating, Dallisgrass” value ([5]; POSTEMERGENCE, Rate 250 g/ha) was 50 and the “Plant response rating, Dallisgrass” value ([5]; PREEMERGENCE, Rate 32 g/ha) was 95. For the same compound, the “Plant response rating, Dallisgrass” value ([5]; PREEMERGENCE, Rate 64 g/ha) was 100, the “Plant response rating, Dallisgrass” value ([5]; PREEMERGENCE, Rate 125 g/ha) was 100 and the “Plant response rating, Dallisgrass” value ([5]; PREEMERGENCE, Rate 250 g/ha) was 100. For the same compound, the “Plant response rating, Goosegrass” value ([6]; POSTEMERGENCE, Rate 125 g/ha) was 20, the “Plant response rating, Goosegrass” value ([6]; POSTEMERGENCE, Rate 250 g/ha) was 30 and the “Plant response rating, Goosegrass” value ([6]; PREEMERGENCE, Rate 32 g/ha) was 98. For the same compound, the “Plant response rating, Goosegrass” value ([6]; PREEMERGENCE, Rate 64 g/ha) was 98, the “Plant response rating, Goosegrass” value ([6]; PREEMERGENCE, Rate 125 g/ha) was 98 and the “Plant response rating, Goosegrass” value ([6]; PREEMERGENCE, Rate 250 g/ha) was 100. For the same compound, the “Plant response rating, Com. purslane” value ([7]; POSTEMERGENCE, Rate 125 g/ha) was 75, the “Plant response rating, Com. purslane” value ([7]; POSTEMERGENCE, Rate 250 g/ha) was 80 and the “Plant response rating, Com. purslane” value ([7]; PREEMERGENCE, Rate 32 g/ha) was 100. The “Plant response rating, Com. purslane” value ([7]; PREEMERGENCE, Rate 64 g/ha) was 100, the “Plant response rating, Com. purslane” value ([7]; PREEMERGENCE, Rate 125 g/ha) was 100 and the “Plant response rating, Com. purslane” value ([7]; PREEMERGENCE, Rate 250 g/ha) was 100. For the same compound, the “Plant response rating, Large crabgrass” value ([8]; Rate 64 g/ha) was 100, the “Plant response rating, Large crabgrass” value ([8]; Rate 125 g/ha) was 100 and the “Plant response rating, Large crabgrass” value ([8]; Rate 250 g/ha) was 100. The “Plant response rating, Com. groundsel” value ([9]; Rate 32 g/ha) was 100, the “Plant response rating, Com. groundsel” value ([9]; Rate 125 g/ha) was 100 and the “Plant response rating, Com. groundsel” value ([9]; Rate 250 g/ha) was 100. The “Plant response rating, Sourgrass” value ([10]; POSTEMERGENCE, Rate 125 g/ha) was 20, the “Plant response rating, Sourgrass” value ([10]; POSTEMERGENCE, Rate 250 g/ha) was 25 and the “Plant response rating, Sourgrass” value ([10]; PREEMERGENCE, Rate 32 g/ha) was 100. The “Plant response rating, Sourgrass” value ([10]; PREEMERGENCE, Rate 64 g/ha) was 100, the “Plant response rating, Sourgrass” value ([10]; PREEMERGENCE, Rate 125 g/ha) was 100 and the “Plant response rating, Sourgrass” value ([10]; PREEMERGENCE, Rate 250 g/ha) was 100. The “Plant response rating, Com. ragweed” value ([11]; Rate 32 g/ha) was 100, the “Plant response rating, Com. ragweed” value ([11]; Rate 64 g/ha) was 100 and the “Plant response rating, Com. ragweed” value ([11]; Rate 250 g/ha) was 100. For the same compound, the “Plant response rating, Guineagrass” value ([12]; POSTEMERGENCE, Rate 125 g/ha) was 20, the “Plant response rating, Guineagrass” value ([12]; POSTEMERGENCE, Rate 250 g/ha) was 40 and the “Plant response rating, Guineagrass” value ([12]; PREEMERGENCE, Rate 32 g/ha) was 90. For the same compound, the “Plant response rating, Guineagrass” value ([12]; PREEMERGENCE, Rate 64 g/ha) was 100, the “Plant response rating, Guineagrass” value ([12]; PREEMERGENCE, Rate 125 g/ha) was 100 and the “Plant response rating, Guineagrass” value ([12]; PREEMERGENCE, Rate 250 g/ha) was 100. The “Plant response rating, Tall Mallow” value ([13]; Rate 32 g/ha) was 98, the “Plant response rating, Tall Mallow” value ([13]; Rate 64 g/ha) was 100 and the “Plant response rating, Tall Mallow” value ([13]; Rate 125 g/ha) was 100. The “Plant response rating, Tall Mallow” value ([13]; Rate 250 g/ha) was 98, the “Plant response rating, Surinam grass” value ([14]; Rate 125 g/ha) was 100 and the “Plant response rating, Surinam grass” value ([14]; Rate 250 g/ha) was 100. For the same compound, the “Plant response rating, Barnyardgrass” value ([15]; Rate 35 g/ha) was 10, the “Plant response rating, Barnyardgrass” value ([15]; Rate 70 g/ha) was 35 and the “Plant response rating, Barnyardgrass” value ([15]; Rate 140 g/ha) was 85. For the same compound, the “Plant response rating, Soybean” value (soybean (Glycine max); Rate 35 g/ha) was 0, the “Plant response rating, Soybean” value (soybean (Glycine max); Rate 70 g/ha) was 10 and the “Plant response rating, Soybean” value (soybean (Glycine max); Rate 140 g/ha) was 10.
